What was measured:
mitochondria = assay: QSLR factorial logistic regression of mitochondrial localization (affinity coefficients, cross-validated prediction); set-up: species or system human; details: for αi^mito: influence of A group on mitochondrial localization, greater = stronger; for estimated A group affinity coefficient ai / estimated B group affinity coefficient bj: mitochondrial affinity; for estimated A group affinity coefficient ai: ±5 for groups always or never mitochondrial; for βj^mito: influence of B group on mitochondrial localization
Source text: The first column and first row contain the A group and B group labels. The second column and second row contain the estimated A group and B group affinity coefficients (ai and bj respectively). The interior of the table contains the value sij=ai+bj for each compound (where positive values of sij indicate predicted localization to mitochondria, and negative values of sij indicate predicted localization to a non-mitochondrial compartment). The subscript m indicates experimentally determined mitochondrial localization. The subscript o indicates experimentally determined non-mitochondrial localization. The darkened boxes indicate correctly predicted mitochondrial localizations under cross-validation.
Based on this matrix, factorial logistic regression (See, A. Agresti, Categorical Data Analysis, Wiley [2002]) was used to calculate mitochondrial affinity coefficients (ai and bj) for each A and B moiety. (Table 1). Since it is not necessary to observe all possible pairings between A and B building blocks to estimate the affinity coefficients, the QSLR approach can predict localization of unmeasured styryl molecules based on a minimal set of experimentally-determined localizations (see Methods). The methods of the present invention allow assessment of predictivity using the cross-validation technique by holding out one compound and fitting the affinity coefficients using the remaining compounds, predictivity can be assessed by comparing the actual localization of the held-out compound to its predicted localization. Repeating this for every measured compound in the library yields an error rate for the procedure.
Briefly, this technique assigns quantitative scores to each A group (αi^mito) and to each B group (βj^mito), in such a way that αi^mito+βj^mito is positive for compounds with mitochondrial localization, and is negative for compounds lacking mitochondrial localization. […] In additional embodiments, same analysis can be applied to organelles other than mitochondria, provided there are a sufficient number of localizations to specific non-mitochondrial organelles in the combinatorial library of interest for reliable statistical calculations.
In certain embodiments, the predictive performance of the above method was assessed using a cross-validation approach by calculating the proportion of all compounds that are correctly predicted. For cross-validation, each styryl product was set aside in sequence, and the factorial logistic model was fit to the remaining data. Then the resulting A and B scores for the held-out compound were summed. If the sum was positive, the held-out compound was predicted to be mitochondrial, while if the sum was negative, the held-out compound was predicted to be non-mitochondrial. […] The baseline performance of the method scored 104 correct out of 145, or 72%. This number is highly statistically significant compared to random guessing (p-value ˜10^−7). Thus, across the entire library, A and B moieties appear to contribute to localization in an independent, additive fashion.
In some embodiments, subcellular localization data were converted to binary (0/1) values by assigning a value Gij=1 if compound i,j localized to mitochondria (even if it localized to other […] as well), and assigning Gij=0 if compound i,j localized exclusively to any non-mitochondrial cellular structure. Compounds with no localization were omitted from this part of the analysis. The αi and βj coefficients for A or B groups that are always observed to localize to mitochondria, or that never localize to mitochondria, were set to +/−5, respectively. The binary localization data were analyzed using factorial logistic regression. […]

[1] = Additive decomposition of peak excitation and emission wavelengths (model coefficients of A and B groups); details: for αi^em: influence of A group on peak emission wavelength; for αi^em / αi^ex: A group 1 as baseline; for αi^ex: influence of A group on peak excitation wavelength; for βj^em: influence of B group on peak emission wavelength; for βj^em / βj^ex: B group 1 as baseline; for βj^ex: influence of B group on peak excitation wavelength
Source text: The chemical structure of the styryl library is illustrated in FIG. 3. […] Initial analysis focused on measurements of peak emission and excitation wavelength obtained for all styryl products showing a single, localized peak (there were 256 such compounds for emission wavelength, and 193 compounds for excitation wavelength). […] The wavelength for the styryl compound formed by joining A group i with B group j is denoted as λij (or more specifically, λij^ex for excitation wavelength and λij^em for emission wavelength). The additive model λij=ai+βj+εij was fit to the data using least squares yielding parameters αi^ex, αi^em, βj^ex, and βj^em that quantify the influence of each A and B group on the spectrum of the styryl product. […] (FIGS. 8A-8B). […] The predictions were made ignoring interactions between the two functional moieties in the styryl compound. The predicted values were obtained without bias, by holding out the data point to be predicted when training the model.
In preferred embodiments, using the cross-validation approach disclosed herein, each compound was held out in sequence, the model was trained using the remaining compounds, then the wavelength value for the held-out compound was predicted based on the resulting fitted model. This process produced correlations between measured and predicted values of ρ^em=0.78 (emission) and ρ^ex=0.69 (excitation).
Based on this analysis, the contribution of the A and B functional groups to the fluorescence of the styryl product is quantified using the fitted coefficients αi^ex, βj^ex, […], and βj^em. Since these coefficients are on a scale without origin, in some embodiments, the invention uses the first A group and B group as a baseline, so […], β1^ex=0, and so on. Table 3 contains the model coefficients of all A and B groups for peak excitation and emission wavelength.
Greater values of αi^ex, αi^em, βj^ex, and βj^em indicate greater peak wavelength. Greater values of αi^mito and […] indicate stronger mitochondrial localization. A groups 40 and 41 were not screened for localization. A groups 2, 29, and 33 only formed fluorescent products with a single B group, so were not included in the spectral analysis.
In some embodiments, the wavelength values for peak excitation and emission were fit to the additive model λij=αi+βj+εij, where εij denotes error that is made as small as possible in the fitting process. Using least squares to minimize the function [formula] over all compounds having experimental data yields coefficient estimates αi for each A group and βj for each B group. One set of coefficient estimates is obtained for the excitation values and another set is obtained for the emission values. To predict the wavelength of a new compound formed from A and B groups i* and j* the sum αi*+βj* is used.
In some embodiments, for both the spectral and localization analysis, cross-validation was used to obtain unbiased estimates of the prediction performance. Each compound was held out in sequence, and the coefficients αi and βj were fit to the remaining compounds. These values were then used to form a prediction for the held out compound, then the predicted and experimental values were compared to obtain a measure of the accuracy of prediction. Since the wavelength values are on a continuous scale, the predicted values were compared to the experimental values using Pearson correlation coefficients. The localization values are dichotomous, so the proportion of matching predictions was used to compare predicted and experimental localization values.

βj^em [1] | βj^ex [1] | Structure (SMILES) | αi^mito (mitochondria) | estimated A group affinity coefficient ai (mitochondria) | influence of group on peak wavelength [1] | αi^em [1] | αi^ex [1] | βj^mito (mitochondria) | estimated B group affinity coefficient bj (mitochondria)
4.3 nm | 4.9 nm | Cc1cc[n+](C23CC4CC(CC(C4)C2)C3)cc1.[Br-] [B group 2] | – | – | – | – | – | 2.0 | 2.0
−2.7 nm | −12.7 nm | Cc1cccc[n+]1C.[I-] [B group 3] | – | – | – | – | – | 4.2 | 4.2
−23.2 nm | −32.3 nm | Cc1ccc[n+](C)c1C.[I-] [B group 4] | – | – | – | – | – | 3.0 | 3.0
3.5 nm | 27.7 nm | Cc1cc[n+](C)c(Br)c1.[I-] [B group 6] | – | – | – | – | – | −5.0 | −5.0
63.7 nm | 29.6 nm | Cc1cc[n+](C)c2ccccc12.[I-] [B group 7] | – | – | strongly contribute towards the red end of the spectrum | – | – | 3.5 | 3.5
64.8 nm | 53.0 nm | Cc1ccc2ccccc2[n+]1C.[I-] [B group 8] | – | – | strongly contribute towards the red end of the spectrum | – | – | 0.4 | 0.4
35.0 nm | −0.1 nm | COc1ccc2c(ccc(C)[n+]2C)c1.[I-] [B group 9] | – | – | strongly contribute towards the red end of the spectrum | – | – | −2.0 | −2.0
19.8 nm | 1.6 nm | Cc1ccnc(-c2cc(C)cc[n+]2C)c1.[I-] [B group 10] | – | – | – | – | – | 0.8 | 0.8
−4.1 nm | −4.2 nm | Cc1cc[n+](C)c(C)c1.[I-] [B group 11] | – | – | – | – | – | 2.1 | 2.1
−1.7 nm | −10.2 nm | Cc1cccc(C)[n+]1C.[I-] [B group 12] | – | – | – | – | – | 2.7 | 2.7

More lines, now with the values behind:

Structure (SMILES) | βj^em [1] | βj^ex [1] | αi^mito (mitochondria) | estimated A group affinity coefficient ai (mitochondria) | influence of group on peak wavelength [1] | αi^em [1] | αi^ex [1] | βj^mito (mitochondria) | estimated B group affinity coefficient bj (mitochondria)
CN(C)c1ccc(C=CC=O)cc1 [A group 37] | – | – | −0.9 | −0.9 | strongly contribute towards the red end of the spectrum | 122.1 nm | 82.9 nm | – | –
COc1cc(OC)c(OC)cc1C=O [A group 38] | – | – | −1.3 | −1.3 | – | 22.2 nm | −15.6 nm | – | –
O=Cc1ccc2c(c1)OCO2 [A group 39] | – | – | 0.0 | 0.0 | – | −25.3 nm | −28.3 nm | – | –
Cc1cc[n+](C)cc1.[I-] [B group 1] | 0.0 nm | 0.0 nm | – | – | – | – | – | 1.9 | 1.9
CCc1ccc(C)[n+](C)c1.[I-] [B group 5] | −7.6 nm | −1.6 nm | – | – | – | – | – | 2.2 | 2.3
Cc1cc(C)[n+](C)c(C)c1.[I-] [B group 13] | −1.8 nm | −1.1 nm | – | – | – | – | – | 2.5 | 2.5
Cc1cnc2c(ccc3c(C)c(C)c[n+](C)c32)c1C.[I-] [B group 14] | 57.9 nm | 100.6 nm | – | – | strongly contribute towards the red end of the spectrum | – | – | 0.0 | 0.1

— US20070111251A1, “Chemical address tags” (priority 2003, published 2007)
